From BindingDB's records for patent US20230399319 (Japan Tobacco, 2023) come the findings set out here.

Chain of NACHT, LRR and PYD domains-containing protein 3 (Q96P20 whole entry, the tested form may be a part): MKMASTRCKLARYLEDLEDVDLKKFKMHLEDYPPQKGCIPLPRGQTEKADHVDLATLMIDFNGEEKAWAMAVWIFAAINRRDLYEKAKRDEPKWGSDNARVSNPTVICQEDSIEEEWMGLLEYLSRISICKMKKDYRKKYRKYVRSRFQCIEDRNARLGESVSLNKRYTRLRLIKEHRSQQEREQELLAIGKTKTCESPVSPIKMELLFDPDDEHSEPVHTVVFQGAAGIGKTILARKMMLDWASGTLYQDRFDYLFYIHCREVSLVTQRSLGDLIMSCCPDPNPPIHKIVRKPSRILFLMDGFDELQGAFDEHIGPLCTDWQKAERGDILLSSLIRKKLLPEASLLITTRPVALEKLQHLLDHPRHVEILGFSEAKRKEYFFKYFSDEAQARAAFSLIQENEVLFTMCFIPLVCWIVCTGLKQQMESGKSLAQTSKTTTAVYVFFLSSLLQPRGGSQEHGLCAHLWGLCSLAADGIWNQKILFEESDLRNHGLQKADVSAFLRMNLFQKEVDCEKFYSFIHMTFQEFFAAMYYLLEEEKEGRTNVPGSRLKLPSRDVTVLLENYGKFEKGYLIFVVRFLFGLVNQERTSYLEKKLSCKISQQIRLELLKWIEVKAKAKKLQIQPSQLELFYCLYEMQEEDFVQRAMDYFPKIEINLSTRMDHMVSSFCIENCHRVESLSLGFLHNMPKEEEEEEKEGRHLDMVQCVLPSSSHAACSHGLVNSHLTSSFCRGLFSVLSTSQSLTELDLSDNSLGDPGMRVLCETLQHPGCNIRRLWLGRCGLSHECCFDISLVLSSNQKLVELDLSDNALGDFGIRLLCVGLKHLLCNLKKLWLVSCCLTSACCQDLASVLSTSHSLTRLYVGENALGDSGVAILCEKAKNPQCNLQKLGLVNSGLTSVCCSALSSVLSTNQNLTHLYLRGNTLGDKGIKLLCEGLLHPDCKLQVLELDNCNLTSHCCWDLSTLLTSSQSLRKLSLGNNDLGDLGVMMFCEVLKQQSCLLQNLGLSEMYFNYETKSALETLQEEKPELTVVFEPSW

The assay addresses NACHT, LRR and PYD domains-containing protein 3 (Homo sapiens, UniProt Q96P20). The assay is described as follows: Evaluation of NLRP3 Inflammasome Inhibitory Activity Assay. The procedure:
The NLRP3 inflammasome inhibitory activity of test compounds were evaluated CM the basis of the inhibitory activity of the IL-1β, production in THP1-Null cells (Product Number: thp-null, InvivoGen). […] A solution containing a test compound (20 μL/well) was added to test compound-setting wells. […] The supernatant of the culture was cryonically stored (set at −20° C.) until measurement of IL-1β.
What is called IC50 is the concentration at which inhibition is half-maximal. In turn, `COC(=O)CC1COCCN1S(=O)(=O)NC(=O)c1coc(Nc2c3c(c(Cl)c4c2CCC4)CCC3)n1` (racemic) [US20230399319, Example 73] came in with an IC50 of 130 nM.

`CC1CCN(S(=O)(=O)NC(=O)c2coc(Nc3c4c(c(F)c5c3CCC5)CCC4)n2)C1` (centres undefined) [US20230399319, Example 2-008] yielded an IC50 of 180 nM. The value for `CC1(C)CCN(S(=O)(=O)NC(=O)c2coc(Nc3c4c(c(F)c5c3CCC5)CCC4)n2)C1` [US20230399319, Example 2-009] was 380 nM; that for `Cc1ccc(C(F)(F)F)cc1Nc1nc(C(=O)NS(=O)(=O)N2CCOC3(COC3)C2)co1` [US20230399319, Example 2-017] was 83 nM; that for `Cc1ccc(C(F)(F)F)cc1Nc1nc(C(=O)NS(=O)(=O)N2CCC(S(C)(=O)=O)CC2)co1` [US20230399319, Example 2-018] was 50 nM. As for `Cc1ccc(C(F)(F)F)cc1Nc1nc(C(=O)NS(=O)(=O)N2CCC(C)C2)co1` (centres undefined) [US20230399319, Example 2-019], the IC50 stood at 70 nM. The value for `Cc1ccc(C(F)(F)F)cc1Nc1nc(C(=O)NS(=O)(=O)N2CCC(C)(C)C2)co1` [US20230399319, Example 2-020] was 100 nM; that for `Cc1ccc(C(F)(F)F)cc1Nc1nc(C(=O)NS(=O)(=O)N2CCC(F)(F)C2)co1` [US20230399319, Example 2-021] was 90 nM. For `Cc1ccc(C(F)(F)F)cc1Nc1nc(C(=O)NS(=O)(=O)N2CCC(CS(C)(=O)=O)CC2)co1` [US20230399319, Example 2-022], the IC50 stood at 240 nM. Compared with the last compound, the IC50 is about 2.7-fold higher. The value for `Cc1ccc(C(F)(F)F)cc1Nc1nc(C(=O)NS(=O)(=O)N2CCC(F)(F)CC2)co1` [US20230399319, Example 2-023] was 130 nM.

As to `Cc1ccc(C(F)(F)F)cc1Nc1nc(C(=O)NS(=O)(=O)N2CCC(C(F)(F)F)CC2)co1` [US20230399319, Example 2-024], the 50% inhibitory concentration (IC50) came out at 31 nM.

The compound `CC(C)c1ccc(C(F)(F)F)cc1Nc1nc(C(=O)NS(=O)(=O)N(C)C)co1` [US20230399319, Example 2-025] had an IC50 of under 30 nM. The value for `CC(C)c1ccc(C(F)(F)F)cc1Nc1nc(C(=O)NS(=O)(=O)N2CCOCC2)co1` [US20230399319, Example 2-026] was under 30 nM; that for `Cc1cc(Cl)c(C(C)C)cc1Nc1nc(C(=O)NS(=O)(=O)N(C)C)co1` [US20230399319, Example 2-027] was 34 nM. Regarding `Cc1cc(Cl)c(C(C)C)cc1Nc1nc(C(=O)NS(=O)(=O)N2CCOCC2)co1` [US20230399319, Example 2-028], the concentration for half-maximal inhibition (IC50) was under 30 nM. For `COC[C@@H]1CCCN1S(=O)(=O)NC(=O)c1coc(Nc2cc(C(F)(F)F)ccc2C)n1` [US20230399319, Example 2-038], the IC50 was under 30 nM. The value for `Cc1ccc(C(C)C)cc1Nc1nc(C(=O)NS(=O)(=O)N(C)C)co1` [US20230399319, Example 2-040] was 130 nM. In turn, `Cc1c(Nc2nc(C(=O)NS(=O)(=O)N(C)C)co2)cc(C(F)(F)F)cc1C(F)(F)F` [US20230399319, Example 2-041] displayed an IC50 of 340 nM. With `Cc1ccc(C(F)(F)F)cc1Nc1nc(C(=O)NS(=O)(=O)N(C(C)C)C(C)C)co1` [US20230399319, Example 2-051] the figure was 44 nM; with `COC[C@H]1CCCN1S(=O)(=O)NC(=O)c1coc(Nc2cc(C(F)(F)F)ccc2C)n1` [US20230399319, Example 2-052], 130 nM; with `Cc1ccc(C(F)(F)F)cc1Nc1nc(C(=O)NS(=O)(=O)N2[C@H](C)CCC[C@@H]2C)co1` [US20230399319, Example 2-053], 89 nM. As to `CN(C)S(=O)(=O)NC(=O)c1coc(Nc2cc(C(F)(F)F)ccc2C2CC2)n1` [US20230399319, Example 2-067], the IC50 came out at 92 nM.

For the compound `CC(C)c1ccc(C(C)C)c(Nc2nc(C(=O)NS(=O)(=O)N3CCCOCC3)co2)c1` [US20230399319, Example 2-071], it took 43 nM to reach half-maximal inhibition (IC50). The value for `CC(C)c1ccc(C(F)(F)F)cc1Nc1nc(C(=O)NS(=O)(=O)N2CCCOCC2)co1` [US20230399319, Example 2-072] was 27 nM; that for `Cc1ccc(C(F)(F)F)cc1Nc1nc(C(=O)NS(=O)(=O)N2CC(F)(F)C2)co1` [US20230399319, Example 2-077] was 530 nM. `Cc1ccc(C(F)(F)F)cc1Nc1nc(C(=O)NS(=O)(=O)N2CCC2C)co1` (centres undefined) [US20230399319, Example 2-078] showed a half-inhibitory concentration (IC50) of 100 nM. Against the preceding compound, the IC50 is about 5.3-fold lower. With `Cc1ccc(C(F)(F)F)cc1Nc1nc(C(=O)NS(=O)(=O)N2CCC[C@H]2C(=O)N(C)C)co1` [US20230399319, Example 2-079] the figure was 280 nM.

For `Cc1ccc(C(F)(F)F)cc1Nc1nc(C(=O)NS(=O)(=O)N2CCC[C@@H]2C(=O)N(C)C)co1` [US20230399319, Example 2-080], the concentration for half-maximal inhibition (IC50) was determined as 930 nM.

For `Cc1ccc(C(C)CC#N)cc1Nc1nc(C(=O)NS(=O)(=O)N(C)C)co1` (centres undefined) [US20230399319, Example 2-096], half-maximal inhibition (IC50) was put at 1800 nM.

Compound `Cc1ccc(C(F)(F)F)cc1Nc1nc(C(=O)NS(=O)(=O)N(C)CC#N)co1` [US20230399319, Example 2-108] yielded an IC50 of 130 nM. The value for `Cc1ccc(C(F)(F)F)cc1Nc1nc(C(=O)NS(=O)(=O)N2CCC(C#N)CC2)co1` [US20230399319, Example 2-109] was 38 nM; that for `Cc1ccc(C(F)(F)F)cc1Nc1nc(C(=O)NS(=O)(=O)N(C)CC(=O)N(C)C)co1` [US20230399319, Example 2-110] was 340 nM; that for `Cc1ccc(C(C)(C)C)cc1Nc1nc(C(=O)NS(=O)(=O)N2CCCOCC2)co1` [US20230399319, Example 2-112] was 65 nM. With `Cc1ccc(C)c(Nc2nc(C(=O)NS(=O)(=O)N3CCCOCC3)co2)c1C` [US20230399319, Example 2-114] the figure was 340 nM; with `Cc1cccc(C)c1Nc1nc(C(=O)NS(=O)(=O)N2CCCOCC2)co1` [US20230399319, Example 2-115], 1300 nM. The value for `CC(C)c1ccc(C(F)(F)F)cc1Nc1nc(C(=O)NS(=O)(=O)N2CCCN(C)CC2)co1` [US20230399319, Example 2-123] was 210 nM.

The compound `CC(C)c1ccc(C(F)(F)F)cc1Nc1nc(C(=O)NS(=O)(=O)N2CCCC2CO)co1` (centres undefined) [US20230399319, Example 2-124] showed an IC50 of 47 nM.

`Cc1ccc(C(C)(C)C)cc1Nc1nc(C(=O)NS(=O)(=O)N(C)CCN(C)C)co1` [US20230399319, Example 2-132] yielded a 50% inhibitory concentration (IC50) of 1900 nM. `Cc1ccc(C(F)(F)F)cc1Nc1nc(C(=O)NS(=O)(=O)N(C)Cc2cccnc2)co1` [US20230399319, Example 2-134] gave an IC50 of 79 nM. Against the preceding compound, the IC50 is about 24-fold lower. For `CC(C)c1ccc(C(F)(F)F)cc1Nc1ncc(C(=O)NS(=O)(=O)N2CCCOCC2)o1` [US20230399319, Example 2-135], the IC50 was found to be 44 nM. The value for `Cc1ccc(C(F)(F)F)cc1Nc1nc(C(=O)NS(=O)(=O)N2CCCC(C#N)CC2)co1` (centres undefined) [US20230399319, Example 2-141] was 9.7 nM.

`Cc1ccc(C(F)(F)F)cc1Nc1nc(C(=O)NS(=O)(=O)N2CCCCCC2)co1` [US20230399319, Example 2-145] returned an IC50 of 42 nM. The value for `Cc1ccc(C(F)(F)F)cc1Nc1nc(C(=O)NS(=O)(=O)N2CCCC(=O)CC2)co1` [US20230399319, Example 2-149] was 32 nM.

`Cc1ccc(C(F)(F)F)cc1Nc1nc(C(=O)NS(=O)(=O)N2CCCC(CC#N)CC2)co1` (centres undefined) [US20230399319, Example 2-150] came in with an IC50 of 25 nM. The compound `COCC1COCCN(S(=O)(=O)NC(=O)c2coc(Nc3cc(C(F)(F)F)ccc3C)n2)C1` (centres undefined) [US20230399319, Example 2-151] displayed a half-maximal inhibitory concentration (IC50) of 64 nM. On to `Cc1cn(CC(F)(F)F)nc1Nc1nc(C(=O)NS(=O)(=O)N2CCCOCC2)co1` [US20230399319, Example 2-152], for which inhibition was half-maximal at 6100 nM (IC50). With `Cc1cn(C2CCCC2)nc1Nc1nc(C(=O)NS(=O)(=O)N2CCCOCC2)co1` [US20230399319, Example 2-153] the figure was 2300 nM; with `CCCCS(=O)(=O)N1CCCN(S(=O)(=O)NC(=O)c2coc(Nc3cn(C(C)C)nc3C(C)C)n2)CC1` [US20230399319, Example 2-161], 70 nM. Consider `CC(=O)NCCN(C)S(=O)(=O)NC(=O)c1coc(Nc2cc(C(F)(F)F)ccc2C)n1` [US20230399319, Example 2-162], for which the IC50 was found to be 300 nM.

For `Cc1ccc(C(F)(F)F)cc1Nc1nc(C(=O)NS(=O)(=O)N(C)Cc2ccccc2)co1` [US20230399319, Example 2-163], the IC50 is 49 nM. This IC50 is about 6.1-fold lower than that of the compound before.

In the case of `COCCN(CCOC)S(=O)(=O)NC(=O)c1coc(Nc2cc(C(F)(F)F)ccc2C)n1` [US20230399319, Example 2-164], the IC50 is 140 nM. The value for `Cc1ccc(C(F)(F)F)cc1Nc1nc(C(=O)NS(=O)(=O)N(C)C2CC2)co1` [US20230399319, Example 2-165] was 100 nM; that for `Cc1ccc(C(C)C)cc1Nc1nc(C(=O)NS(=O)(=O)N(C)Cc2ccccn2)co1` [US20230399319, Example 2-167] was 48 nM; that for `CCC(CC)n1cc(C)c(Nc2nc(C(=O)NS(=O)(=O)N3CCCOCC3)co2)n1` [US20230399319, Example 2-168] was 9800 nM.

In the case of `Cc1ccc(C(F)(F)F)cc1Nc1nc(C(=O)NS(=O)(=O)N2CCCC(N(C)C)CC2)co1` (centres undefined) [US20230399319, Example 2-173], it took 120 nM to reach half-maximal inhibition (IC50). Take `Cc1ccc(C(F)(F)F)cc1Nc1nc(C(=O)NS(=O)(=O)N2CCCC2C)co1` (centres undefined) [US20230399319, Example 2-174]: the midpoint of inhibition, the IC50, lay at 55 nM. The value for `Cc1cn(C(C)C(F)(F)F)nc1Nc1nc(C(=O)NS(=O)(=O)N2CCCOCC2)co1` (centres undefined) [US20230399319, Example 2-178] was 880 nM; that for `Cc1ccc(C(F)(F)F)cc1Nc1nc(C(=O)NS(=O)(=O)N2CCCCC2C(F)F)co1` (centres undefined) [US20230399319, Example 2-187] was 110 nM; that for `Cc1cn(C2CCC2)nc1Nc1nc(C(=O)NS(=O)(=O)N2CCCOCC2)co1` [US20230399319, Example 2-188] was 790 nM.
